Reference: ChEMBL document CHEMBL3044808, “Laboratory and field comparisons of insecticides to reduce infestation of Drosophila suzukii in berry crops” (2011)
Activity calls are given as the source filed them. No cut-off for these calls is given here.

What was measured:
Drosophila suzukii [1] = test: Insecticidal activity against Drosophila suzukii assessed as mortality at 212.5 g/ha by direct application at 22 degC measured after 24 hr; type: functional, organism-based
Drosophila suzukii [2] = test: Insecticidal activity against Drosophila suzukii assessed as mortality at 1 g/ha by direct application at 22 degC measured after 24 hr; type: functional
Drosophila suzukii [3] = test: Insecticidal activity against Drosophila suzukii assessed as mortality at 62.3 g/ha by direct application at 22 degC measured after 24 hr; type: functional
Drosophila suzukii [4] = test: Insecticidal activity against Drosophila suzukii assessed as mortality at 24 g/ha by direct application at 22 degC measured after 24 hr; type: functional
Drosophila suzukii [5] = test: Insecticidal activity against Drosophila suzukii assessed as male mortality at 2.3 g/ha by direct application at 22 degC measured after 24 hr; type: functional, organism-based
Drosophila suzukii [6] = test: Insecticidal activity against Drosophila suzukii assessed as mortality at 70.2 g/ha by direct application at 22 degC measured after 24 hr; type: functional, organism-based
Drosophila suzukii [7] = test: Insecticidal activity against Drosophila suzukii assessed as male mortality at 41 g/ha by direct application at 22 degC measured after 24 hr; type: functional, organism-based
Drosophila suzukii [8] = test: Insecticidal activity against Drosophila suzukii assessed as male mortality at 3.31 g/ha by direct application at 22 degC measured after 24 hr; type: functional, organism-based
Drosophila suzukii [9] = test: Insecticidal activity against Drosophila suzukii assessed as male mortality at 112.3 g/ha by direct application at 22 degC measured after 24 hr; type: functional, organism-based
Drosophila suzukii [10] = test: Insecticidal activity against Drosophila suzukii assessed as mortality at 2.3 g/ha by direct application at 22 degC measured after 24 hr; type: functional
Drosophila suzukii [11] = test: Insecticidal activity against Drosophila suzukii assessed as mortality at 3.31 g/ha by direct application at 22 degC measured after 24 hr; type: functional, organism-based
Drosophila suzukii [12] = test: Insecticidal activity against Drosophila suzukii assessed as mortality at 56.2 g/ha by direct application at 22 degC measured after 24 hr; type: functional
Drosophila suzukii [13] = test: Insecticidal activity against Drosophila suzukii assessed as mortality at 2.2 g/ha by direct application at 22 degC measured after 24 hr; type: functional
Drosophila suzukii [14] = test: Insecticidal activity against Drosophila suzukii assessed as mortality at 112.3 g/ha by direct application at 22 degC measured after 24 hr; type: functional, organism-based
Drosophila suzukii [15] = test: Insecticidal activity against Drosophila suzukii assessed as mortality at 223.9 g/ha by direct application at 22 degC measured after 24 hr; type: functional
Drosophila suzukii [16] = test: Insecticidal activity against Drosophila suzukii assessed as mortality at 113.8 g/ha by direct application at 22 degC measured after 24 hr; type: functional, organism-based
Drosophila suzukii [17] = test: Insecticidal activity against Drosophila suzukii assessed as mortality at 341.5 g/ha by direct application at 22 degC measured after 24 hr; type: functional
Drosophila suzukii [18] = test: Insecticidal activity against Drosophila suzukii assessed as mortality at 1.1 g/ha by direct application at 22 degC measured after 24 hr; type: functional
Drosophila suzukii [19] = test: Insecticidal activity against Drosophila suzukii assessed as mortality at 112.1 g/ha by direct application at 22 degC measured after 24 hr; type: functional
Drosophila suzukii [20] = test: Insecticidal activity against Drosophila suzukii assessed as mortality at 112.2 g/ha by direct application at 22 degC measured after 24 hr; type: functional
Drosophila suzukii [21] = test: Insecticidal activity against Drosophila suzukii assessed as mortality at 41 g/ha by direct application at 22 degC measured after 24 hr; type: functional, organism-based

Structure (SMILES) | Activity (Drosophila suzukii [5]) | Activity (Drosophila suzukii [7]) | Activity (Drosophila suzukii [8]) | Activity (Drosophila suzukii [9]) | further results
O=C(NC(=O)c1c(F)cccc1F)Nc1ccc(OC(F)(F)C(F)OC(F)(F)F)c(Cl)c1 (stereo not drawn) | – | – | – | – | Activity (Drosophila suzukii [1]): Active
CNC(=O)ON=C(C)SC [METHOMYL] | – | – | – | – | mortality at 1 g/ha (Drosophila suzukii [2]): 100%
C=CCC1=C(C)C(OC(=O)C2C(C=C(C)C)C2(C)C)CC1=O (stereo not drawn) [Allethrin] | – | – | – | – | mortality at 62.3 g/ha (Drosophila suzukii [3]): 79%
CC1(C)C(C=C(Cl)Cl)C1C(=O)OC(C#N)c1ccc(F)c(Oc2ccccc2)c1 (stereo not drawn) [CYFLUTHRIN] | – | – | – | – | mortality at 24 g/ha (Drosophila suzukii [4]): 100%
CN1COCN(Cc2cnc(Cl)s2)/C1=N\[N+](=O)[O-] | Active | Active | Active | Active | Activity (Drosophila suzukii [6]): Active
CNC(=O)Oc1cccc2ccccc12 [CARBARIL] | Active | Active | Active | Active | mortality at 2.3 g/ha (Drosophila suzukii [10]): 100%
CC[C@H](C)[C@H]1O[C@]2(C=C[C@@H]1C)C[C@@H]1C[C@@H](C/C=C(\C)[C@@H](O[C@H]3C[C@H](OC)[C@@H](O[C@H]4C[C@H](OC)[C@@H](O)[C@H](C)O4)[C@H](C)O3)[C@@H](C)/C=C/C=C3\CO[C@@H]4[C@H](O)C(C)=C[C@@H](C(=O)O1)[C@]34O)O2.CO[C@H]1C[C@H](O[C@H]2[C@H](C)O[C@@H](O[C@@H]3/C(C)=C/C[C@@H]4C[C@@H](C[C@]5(C=C[C@H](C)[C@@H](C(C)C)O5)O4)OC(=O)[C@@H]4C=C(C)[C@@H](O)[C@H]5OC/C(=C\C=C\[C@@H]3C)[C@]54O)C[C@@H]2OC)O[C@@H](C)[C@@H]1O | Active | Active | Active | Active | Activity (Drosophila suzukii [11]): Active
CC(C)[C@H](C(=O)O[C@H](C#N)c1cccc(Oc2ccccc2)c1)c1ccc(Cl)cc1 | – | – | – | – | mortality at 56.2 g/ha (Drosophila suzukii [12]): 100%
CCOC(=O)CC(SP(=S)(OC)OC)C(=O)OCC (stereo not drawn) [MALATHION] | – | – | – | – | mortality at 2.3 g/ha (Drosophila suzukii [10]): 100%; mortality at 2.2 g/ha (Drosophila suzukii [13]): 100%
C/C(=N\C#N)N(C)Cc1ccc(Cl)nc1 | Active | Active | Active | Active | Activity (Drosophila suzukii [14]): Active
CC1(C)C(C=C(Cl)Cl)C1C(=O)OCc1cccc(Oc2ccccc2)c1 (stereo not drawn) [PERMETHRIN] | – | – | – | – | mortality at 223.9 g/ha (Drosophila suzukii [15]): 100%
CNC(=O)c1cc(Cl)cc(C)c1NC(=O)c1cc(Br)nn1-c1ncccc1Cl | Active | Active | Active | Active | Activity (Drosophila suzukii [16]): Active
CC1(C)C(C(=O)OC(C#N)c2cccc(Oc3ccccc3)c2)C1(C)C (stereo not drawn) [FENPROPATHRIN] | – | – | – | – | mortality at 341.5 g/ha (Drosophila suzukii [17]): 100%
CCOP(=S)(OCC)Oc1cc(C)nc(C(C)C)n1 [DIMPYLATE] | – | – | – | – | mortality at 1.1 g/ha (Drosophila suzukii [18]): 100%
O=S1OCC2C(CO1)C1(Cl)C(Cl)=C(Cl)C2(Cl)C1(Cl)Cl (stereo not drawn) | – | – | – | – | Activity (Drosophila suzukii [18]): Active
Cc1c(COC(=O)[C@@H]2[C@H](/C=C(\Cl)C(F)(F)F)C2(C)C)cccc1-c1ccccc1 (relative stereo) [BIFENTHRIN] | – | – | – | – | mortality at 112.1 g/ha (Drosophila suzukii [19]): 100%; mortality at 112.2 g/ha (Drosophila suzukii [20]): 100%
C/C=C(\C)C(=O)O[C@H]1C[C@@H](OC(C)=O)[C@@]2(C(=O)OC)CO[C@H]3[C@@H](O)[C@@](C)([C@]45O[C@@]4(C)[C@@H]4C[C@H]5O[C@@H]5OC=C[C@@]54O)[C@H]4[C@]1(CO[C@]4(O)C(=O)OC)[C@@H]32 | Active | Active | Active | Active | Activity (Drosophila suzukii [21]): Active
